Measurements published in US20230031406A1, “COMPOUNDS AND COMPOSITIONS FOR TREATING CONDITIONS ASSOCIATED WITH NLRP ACTIVITY” (Novartis AG, priority 2018, published 2023).

Tested on: PMA-differentiated THP-1 cells
Experiment: IL-1β production in PMA-differentiated THP-1 cells stimulated with gramicidin (hTHP-1 assay containing 2% fetal bovine serum; Procedures 1 and 2)
Format: cell-based, human
Details: Homo sapiens, THP-1, Table B2; 2% fetal bovine serum; class symbols; read-out: hTHP-1 IC50
Method in brief: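 Human monocytic THP-1 cells, matured overnight with PMA at 20 ng/ml, are seeded in low-serum (2% FBS) RPMI. Test compounds, at final concentrations from 100 down to 0.0017 μM, precede gramicidin (5 μM, 2 h) by one hour. Released IL-1β is then determined by HTRF.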

| SMILES | IC50 |
| --- | --- |
| Cc1c(C(C)C)nc2c(c1NC(=O)N=S(N)(=O)c1cnc(C(C)(C)O)s1)CCC2 (stereo not drawn) [Compound 650, 2-(2-Hydroxypropan-2-yl)-N′-((2-isopropyl-3-methyl-6,7-dihydro-5H-cyclopenta[b]pyridin-4-yl)carbamoyl)thiazole-5-sulfonimidamide] | 0.2 to 1 µM |
| Cc1c(C2CC2)nc2c(c1NC(=O)N=S(N)(=O)c1cc(C(C)(C)O)n(-c3ccccc3)n1)CCC2 (stereo not drawn) [Compound 651, N′-((2-cyclopropyl-3-methyl-6,7-dihydro-5H-cyclopenta[b]pyridin-4-yl)carbamoyl)-5-(2-hydroxypropan-2-yl)-1-phenyl-1H-pyrazole-3-sulfonimidamide] | 5 to 30 µM |
| CC(C)n1nc(S(N)(=O)=NC(=O)Nc2c3c(nc4c2CCC4(C)C)CCC3)cc1CO (stereo not drawn) [Compound 652, N′-((3,3-dimethyl-1,2,3,5,6,7-hexahydrodicyclopenta[b,e]pyridin-8-yl)carbamoyl)-5-(hydroxymethyl)-1-isopropyl-1H-pyrazole-3-sulfonimidamide] | 1 to 5 µM |
| CCc1nc2c(c(NC(=O)N=S(N)(=O)c3cc(C(C)(C)O)cs3)c1C1CC1)CCC2 (stereo not drawn) [Compound 654, N′-((3-cyclopropyl-2-ethyl-6,7-dihydro-5H-cyclopenta[b]pyridin-4-yl)carbamoyl)-4-(2-hydroxypropan-2-yl)thiophene-2-sulfonimidamide] | 0.2 to 1 µM |
| Cc1c(CC2CC2)nc2c(c1NC(=O)N=S(N)(=O)c1cc(C(C)(C)O)cs1)CCC2 (stereo not drawn) [Compound 655, N′-((2-(cyclopropylmethyl)-3-methyl-6,7-dihydro-5H-cyclopenta[b]pyridin-4-yl)carbamoyl)-4-(2-hydroxypropan-2-yl)thiophene-2-sulfonimidamide] | 5 to 30 µM |
| Cc1c(C(C)(C)C)nc2c(c1NC(=O)N=S(N)(=O)c1cc(C(C)(C)O)cs1)CCC2 (stereo not drawn) [Compound 657, N′-((2-(tert-butyl)-3-methyl-6,7-dihydro-5H-cyclopenta[b]pyridin-4-yl)carbamoyl)-4-(2-hydroxypropan-2-yl)thiophene-2-sulfonimidamide] | 5 to 30 µM |
| Cc1c(C2CCC2)nc2c(c1NC(=O)N=S(N)(=O)c1cc(C(C)(C)O)cs1)CCC2 (stereo not drawn) [Compound 658, N′-((2-cyclobutyl-3-methyl-6,7-dihydro-5H-cyclopenta[b]pyridin-4-yl)carbamoyl)-4-(2-hydroxypropan-2-yl)thiophene-2-sulfonimidamide] | 5 to 30 µM |
| CC1(C)CCc2c1nc1c(c2NC(=O)N=S(N)(=O)c2ccn(-c3ccccc3)n2)CCC1 (stereo not drawn) [Compound 659, N′-((3,3-dimethyl-1,2,3,5,6,7-hexahydrodicyclopenta[b,e]pyridin-8-yl)carbamoyl)-1-phenyl-1H-pyrazole-3-sulfonimidamide] | 1 to 5 µM |
| Cc1c(C(F)(F)F)nc2c(c1NC(=O)N=S(N)(=O)c1cnc(C(C)(C)O)s1)CCC2 (stereo not drawn) [Compound 661, 2-(2-Hydroxypropan-2-yl)-N′-((3-methyl-2-(trifluoromethyl)-6,7-dihydro-5H-cyclopenta[b]pyridin-4-yl)carbamoyl)thiazole-5-sulfonimidamide] | 1 to 5 µM |
| CC(C)(O)c1cc(S(N)(=O)=NC(=O)Nc2c3c(nc4c2CCC4(C)C)CCC3)nn1-c1ccccc1 (stereo not drawn) [Compound 663, N′-((3,3-dimethyl-1,2,3,5,6,7-hexahydrodicyclopenta[b,e]pyridin-8-yl)carbamoyl)-5-(2-hydroxypropan-2-yl)-1-phenyl-1H-pyrazole-3-sulfonimidamide] | 1 to 5 µM |
| CC(C)c1c(C2CC2)nc2c(c1NC(=O)N=S(N)(=O)c1cc(C(C)(C)O)cs1)CCC2 (stereo not drawn) [Compound 667, N′-((2-cyclopropyl-3-isopropyl-6,7-dihydro-5H-cyclopenta[b]pyridin-4-yl)carbamoyl)-4-(2-hydroxypropan-2-yl)thiophene-2-sulfonimidamide] | 0.2 to 1 µM |
| Cc1c(C2(C)CC2)nc2c(c1NC(=O)N=S(N)(=O)c1cc(C(C)(C)O)cs1)CCC2 (stereo not drawn) [Compound 669, 4-(2-Hydroxypropan-2-yl)-N′-((3-methyl-2-(1-methylcyclopropyl)-6,7-dihydro-5H-cyclopenta[b]pyridin-4-yl)carbamoyl)thiophene-2-sulfonimidamide] | 5 to 30 µM |
| CC(C)(O)c1csc(S(N)(=O)=NC(=O)Nc2c3c(nc(C4CC4)c2C2CC2)CCC3)c1 (stereo not drawn) [Compound 670, N′-((2,3-dicyclopropyl-6,7-dihydro-5H-cyclopenta[b]pyridin-4-yl)carbamoyl)-4-(2-hydroxypropan-2-yl)thiophene-2-sulfonimidamide] | 0.2 to 1 µM |
| CC(C)(O)c1ncc(S(N)(=O)=NC(=O)Nc2c3c(nc4c2CC4)CCC3)s1 (stereo not drawn) [Compound 672, 2-(2-Hydroxypropan-2-yl)-N′-((2,4,5,6-tetrahydro-1H-cyclobuta[b]cyclopenta[e]pyridin-7-yl)carbamoyl)thiazole-5-sulfonimidamide] | 5 to 30 µM |
| CC(C)(O)c1ccc(S(N)(=O)=NC(=O)Nc2c3c(nc4c2CCC4(C)C)CCC3)cn1 (stereo not drawn) [Compound 673, N′-((3,3-dimethyl-1,2,3,5,6,7-hexahydrodicyclopenta[b,e]pyridin-8-yl)carbamoyl)-6-(2-hydroxypropan-2-yl)pyridine-3-sulfonimidamide] | 5 to 30 µM |
| CC(C)(O)c1cc(C#N)cc(S(N)(=O)=NC(=O)Nc2c3c(nc4c2CCC4(C)C)CCC3)c1 (stereo not drawn) [Compound 674, 3-Cyano-N′-((3,3-dimethyl-1,2,3,5,6,7-hexahydrodicyclopenta[b,e]pyridin-8-yl)carbamoyl)-5-(2-hydroxypropan-2-yl)benzenesulfonimidamide] | 1 to 5 µM |
| CCc1c(C2CC2)nc2c(c1NC(=O)N=S(N)(=O)c1cnc(C(C)(C)O)s1)CCC2 (stereo not drawn) [Compound 675, N′-((2-cyclopropyl-3-ethyl-6,7-dihydro-5H-cyclopenta[b]pyridin-4-yl)carbamoyl)-2-(2-hydroxypropan-2-yl)thiazole-5-sulfonimidamide] | 1 to 5 µM |
| Cc1c(C2CC2)nc2c(c1NC(=O)N=S(N)(=O)c1ccn(C(F)F)n1)CCC2 (stereo not drawn) [Compound 676, N′-((2-cyclopropyl-3-methyl-6,7-dihydro-5H-cyclopenta[b]pyridin-4-yl)carbamoyl)-1-(difluoromethyl)-1H-pyrazole-3-sulfonimidamide] | 1 to 5 µM |
| CC(C)(O)c1ncc(S(N)(=O)=NC(=O)Nc2nc3c(c4c2CCC4)CCC3)s1 (stereo not drawn) [Compound 677, N′-((1,2,3,5,6,7-hexahydrodicyclopenta[b,d]pyridin-5-yl)carbamoyl)-2-(2-hydroxypropan-2-yl)thiazole-5-sulfonimidamide] | 1 to 5 µM |
| CC(C)(O)c1sc(S(N)(=O)=NC(=O)Nc2c3c(nc4c2CCC4)CCC3)cc1F (stereo not drawn) [Compound 678, 4-Fluoro-N′-((1,2,3,5,6,7-hexahydrodicyclopenta[b,e]pyridin-8-yl)carbamoyl)-5-(2-hydroxypropan-2-yl)thiophene-2-sulfonimidamide] | 1 to 5 µM |
| Cc1c(C2CC2)nc2c(c1NC(=O)N=S(N)(=O)c1sc(C(C)(C)O)nc1CO)CCC2 (stereo not drawn) [Compound 679, N′-((2-cyclopropyl-3-methyl-6,7-dihydro-5H-cyclopenta[b]pyridin-4-yl)carbamoyl)-4-(hydroxymethyl)-2-(2-hydroxypropan-2-yl)thiazole-5-sulfonimidamide] | 5 to 30 µM |
| CC(C)c1nc(CO)c(S(N)(=O)=NC(=O)Nc2c3c(nc4c2CCC4(C)C)CCC3)s1 (stereo not drawn) [Compound 680, N′-((3,3-dimethyl-1,2,3,5,6,7-hexahydrodicyclopenta[b,e]pyridin-8-yl)carbamoyl)-4-(hydroxymethyl)-2-isopropylthiazole-5-sulfonimidamide] | 1 to 5 µM |
| Cc1c(C(C)C)nc2c(c1NC(=O)N=S(N)(=O)c1cc(C(C)(C)O)cs1)CCC2 (stereo not drawn) [Compound 681, 4-(2-Hydroxypropan-2-yl)-N′-((2-isopropyl-3-methyl-6,7-dihydro-5H-cyclopenta[b]pyridin-4-yl)carbamoyl)thiophene-2-sulfonimidamide] | 0.04 to 0.2 µM |

Same assay, conditions: Homo sapiens, THP-1, Table B2; 2% fetal bovine serum; numeric bounds; read-out: hTHP-1 IC50

| SMILES | IC50 |
| --- | --- |
| CNCc1nc(C(C)(C)O)sc1S(N)(=O)=NC(=O)Nc1c2c(nc3c1CCC3(C)C)CCC2 (stereo not drawn) [Compound 665, N-((3,3-dimethyl-1,2,3,5,6,7-hexahydrodicyclopenta[b,e]pyridin-8-yl)carbamoyl)-2-(2-hydroxypropan-2-yl)-4-((methylamino)methyl)thiazole-5-sulfonimidamide] | > 30 µM |

Same assay, conditions: Table B2; 2% fetal bovine serum; class symbols; read-out: hTHP-1 IC50

| SMILES | IC50 |
| --- | --- |
| Cc1c(C2CC2)nc2c(c1NC(=O)N=S(N)(=O)c1cc(C(C)(C)O)cs1)CCC2C (stereo not drawn) [Compound 656, N′-((2-cyclopropyl-3,7-dimethyl-6,7-dihydro-5H-cyclopenta[b]pyridin-4-yl)carbamoyl)-4-(2-hydroxypropan-2-yl)thiophene-2-sulfonimidamide] | 1 to 5 µM |
| CC1CCc2c1nc1c(c2NC(=O)N=S(N)(=O)c2cn(C(C)C)cn2)CCC1 (stereo not drawn) [Compound 660, 1-Isopropyl-N′-((3-methyl-1,2,3,5,6,7-hexahydrodicyclopenta[b,e]pyridin-8-yl)carbamoyl)-1H-imidazole-4-sulfonimidamide] | 5 to 30 µM |
| CCC1CCc2c1nc1c(c2NC(=O)N=S(N)(=O)c2cnc(C(C)(C)O)s2)CCC1 (stereo not drawn) [Compound 662, N′-((3-ethyl-1,2,3,5,6,7-hexahydrodicyclopenta[b,e]pyridin-8-yl)carbamoyl)-2-(2-hydroxypropan-2-yl)thiazole-5-sulfonimidamide] | 5 to 30 µM |
| CCC1CCc2c1nc1c(c2NC(=O)N=S(N)(=O)c2cnc(C(C)(C)O)s2)CCC1 (stereo not drawn) [Compound 662e] | 1 to 5 µM |
| CCC1CCc2c1nc1c(c2NC(=O)N=S(N)(=O)c2ccn(C(F)F)n2)CCC1 (stereo not drawn) [Compound 668, 1-(Difluoromethyl)-N′-((3-ethyl-1,2,3,5,6,7-hexahydrodicyclopenta[b,e]pyridin-8-yl)carbamoyl)-1H-pyrazole-3-sulfonimidamide] | 5 to 30 µM |
| CCC1CCc2c1nc1c(c2NC(=O)N=S(N)(=O)c2sc(C(C)(C)O)cc2F)CCC1 (stereo not drawn) [Compound 671, N′-((3-ethyl-1,2,3,5,6,7-hexahydrodicyclopenta[b,e]pyridin-8-yl)carbamoyl)-3-fluoro-5-(2-hydroxypropan-2-yl)thiophene-2-sulfonimidamide] | 1 to 5 µM |
